In patent US20160287696A1, “PAN POLLEN IMMUNOGENS AND METHODS AND USES FOR IMMUNE RESPONSE MODULATION” (LA JOLLA INSTITUTE FOR ALLERGY AND IMMUNOLOGY, priority 2013, published 2016):

Test system: cultured PBMCs of the allergic donors
Assay: ELISPOT of IL-5 or IFNg production by cultured PBMCs of TG allergic donors in response to peptide
Format: cell-based, human
Details: for No of PG+ & th+ peptides per NTGA / No of PP & Th+ peptides per NTGA: Table 6; for No of PG+ & th+ peptides per NTGA: PG+ peptides recognized by T cells of grass allergic donors (n=20); for No of PP & Th+ peptides per NTGA: PP peptides recognized by T cells of grass allergic donors (n=20); for # Th+: Table 7, peptides per NTGA recognized by T cells of grass allergic donors (n=20); for NTGA's containing at least one T cell epitope, Th+ (Col 2): NTGA number given = criterion met, TG allergic donors n=20
From the text: Table 1 indicates for each of the 397 PG+ peptides in which non-grass pollen species a matching peptide with either less than 3, less than 2 or zero mismatches are found. The number of TG grass allergic donors (n=20) with an in vitro T cell response to the TG peptide sequence is also shown.
A set of 93 proteins from Timothy grass (TG) pollen and the assembly of 822 peptides (15 mers) predicted to promiscuously bind HLA class II molecules shown in Table 9 and the immune reactivity in allergic donors have been reported in PCT application WO 2013/119863. […] Immune reactivity was determined by the production of IL-5 or IFNg from cultured PBMCs of the allergic donors in response to stimulation with a peptide and IL-5 and IFNg were measured by ELISPOT as described in Oseroff C et al, 2010.
In short, T cell immune reactivity was determined using PBMCs isolated from study participants and stored in liquid nitrogen until further use. For experimental testing, PBMCs were thawed and expanded in vitro with TG pollen extract (50 μg/mL) or the peptide pool ([…]). The TG extract and peptide pools had each been previously titrated to determine optimal stimulation concentrations.
Cytokine production by cultured PBMCs in response to antigen stimulation was measured by ELISPOT. Cells (1×10^5 cells/well) were plated and incubated with peptide (10 μg/mL), the peptide pool (5 μg/mL), or the TG extract (50 μg/mL). Phytohaemagglutinin (10 μg/mL) and medium alone were used as positive and negative controls, respectively. Samples were considered to produce a cytokine if 100 spot-forming cells (SFCs)/10^6 PBMCs were detected, with P .05 and a stimulation index of 2 or more. Criteria for individual peptides were the same except that a minimum of 20 SFCs were required for a sample to be counted as positive.
Table 3 lists the 397 PG+ peptides and indicates for each non-grass pollen species whether a matching peptide with either less than 3, less than 2 or zero mismatches could be detected. The immune reactivity of the TG peptide was assessed as the number of TG grass allergic donors (n=20) having in vitro T cell response against the TG peptide.

Row | Substance | No of PG+ & th+ peptides per NTGA | No of PP & Th+ peptides per NTGA | # Th+ | NTGA's containing at least one T cell epitope, Th+ (Col 2)
1 | 38 (AVQSIPYFASGLKGV) [compound 38] | 0 | 0 | 0 | 
2 | 15 (GASTGVYEALELRDG) [compound 15] |  |  | 0 | 
3 | 31 (QGFIWGINSFDQWGV) [compound 31] | 0 | 0 | 0 | 
4 | 36 (KRFFVTPSDSVAIIA) [compound 36] | 0 | 0 | 0 | 
5 | 68 (AAIRFFDHAIGINVP) [compound 68] |  |  | 0 | 
6 | 44 (GATIRIYIEQYEKDS) [compound 44] | 0 | 0 | 0 | 
7 | 21 (VVSKTFTTAETMLNA) [compound 21] | 0 | 0 | 0 | 
8 | 48 (ILSYADFYQLAGVVA) [compound 48] | 0 | 0 | 0 | 
9 | 42 (HQGIRYLFGDGSRLV) [compound 42] | 1 | 1 | 0 | 42
10 | 12 (RAAVPSGASTGVYEA) [compound 12] |  |  | 0 | 
11 | 28 (NGQHSFYQLIHQGRV) [compound 28] | 0 | 0 | 0 | 
12 | 92 (SVGFVETLENDLAQL) [compound 92] |  |  | 0 | 
13 | 75 (GTIRNIINGTVFREP) [compound 75] |  |  | 0 | 
14 | 46 (LDIAVRLLEPIKEQV) [compound 46] |  |  | 1 | 
15 | 80 (VQSDFLAQGFGSLGL) [compound 80] |  |  | 0 | 
16 | 72 (VQSDLYTLVDGFVTR) [compound 72] | 2 | 1 | 0 | 72
17 | 93 (LGEAPYKFKSALEAV) [compound 93] |  |  | 0 | 
18 | 60 (SDNLGAIVDMKILNH) [compound 60] | 0 | 0 | 0 | 
19 | 18 (ENRSVLHVALRAPRD) [compound 18] | 0 | 0 | 0 | 
20 | 84 (KSLVRAFMWDSGSTV) [compound 84] | 4 | 3 | 0 | 84
21 | 83 (LNTEEFIDAVAAELQ) [compound 83] | 11 | 4 | 0 | 83
22 | 37 (SDSVAIIAANAVQSI) [compound 37] |  |  | 0 | 
23 | 78 (GRFKDIFQAVYEADW) [compound 78] |  |  | 0 | 
24 | 66 (IKRLVEADALKMEII) [compound 66] |  |  | 0 | 
25 | 41 (LVSVEDIVLQHWATY) [compound 41] |  |  | 0 | 

Row | Substance | No of PG+ & th+ peptides per NTGA | No of PP & Th+ peptides per NTGA | # Th+ | NTGA's containing at least one T cell epitope, Th+ (Col 2)
26 | 71 (TSDLQLVQSDLYTLV) [compound 71] |  |  | 0 | 
27 | 85 (RVLSCDFKPTRPFRI) [compound 85] |  |  | 0 | 
28 | 5 (KLAMQEFMILPTGAS) [compound 5] | 0 | 0 | 0 | 
29 | 50 (NPLIFDNSYFTELLT) [compound 50] | 0 | 0 | 0 | 
30 | 54 (FLDLIVLQIESLNKK) [compound 54] |  |  |  | 54
31 | 23 (RYSVCSAVGVLPLSL) [compound 23] |  |  | 0 | 
32 | 81 (NSIASIFAWTRGLAH) [compound 81] |  |  | 0 | 
33 | 45 (DALSPLVDVALKLSK) [compound 45] |  |  | 0 | 
34 | 69 (GINVPRSRFLPVKAT) [compound 69] | 0 | 0 | 0 | 
35 | 82 (DNARLLDFTQKLEDA) [compound 82] |  |  | 0 | 
36 | 14 (LGAAAVYAGLKFRAP) [compound 14] |  |  | 0 | 
37 | 55 (LNKKYGSNVPLLLMN) [compound 55] | 0 | 0 | 0 | 
38 | 25 (VLLGLLSVWNVSFLG) [compound 25] |  |  | 0 | 
39 | 70 (RFLPVKATSDLQLVQ) [compound 70] |  |  | 0 | 
40 | 67 (VKVLQLETAAGAAIR) [compound 67] |  |  | 0 | 
41 | 79 (WYEHRLIDDMVAYAL) [compound 79] | 1 | 0 | 0 | 79
42 | 40 (GIWAVLAWLSIIAYK) [compound 40] | 2 | 2 | 0 | 40
43 | 61 (ISYEGRVQLLEIAQV) [compound 61] |  |  | 0 | 
44 | 33 (DDGKVYLEMSYYFEI) [compound 33] | 0 | 0 | 0 | 
45 | 58 (GKLDLLLSQGKEYVF) [compound 58] | 0 | 0 | 0 | 
46 | 57 (LKIVEKYANSSIDIH) [compound 57] | 0 | 0 | 0 | 
47 | 35 (RNMVLGKRFFVTPSD) [compound 35] | 2 | 1 | 0 | 35
48 | 17 (VDNVNSIIGPALIGK) [compound 17] |  |  | 0 | 
49 | 16 (QTELDNFMVHQLDGT) [compound 16] | 2 | 2 | 0 | 16
50 | 63 (FKSIEKFKIFNTNNL) [compound 63] |  |  | 0 | 
